Laboratory results as given in patent US5968526A, “T cell epitopes of the major allergens from Dermatophagoides (house dust mite)” (Immulogic Pharamaceutical Corporation, priority 1995, dated 1999).

Experiments:
Type in all cases: cell-based, human
[1] = system: T cell lines primed in vitro to Der f I; assay: secondary proliferation of Der f I-primed T cell lines (Examples VI, VII, XI); settings: for T cell response to Der p I peptides: Der f I primed, 8 positive experiments, FIG. 8
Summary of the method: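 PBMC from house dust mite-allergic patients were primed in vitro with recombinant or affinity-purified Der f I at 20 μg/ml (or 10 μg/ml), then rechallenged with Der f I peptides. Antigen-presenting cells were x-irradiated autologous PBMC (3500 Rads) or EBV-transformed B cells (25,000 Rads). Read-out was T cell proliferation.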

[2] = system: T cell lines primed in vitro with Der p I; assay: T cell proliferation with fine map and modified Group I peptides (Example XIV); settings: for positive T cell responses, modified peptides: 18 T cell lines, affinity purified Der p I primed, FIG. 31a
Procedure: Long term T cell lines were established by stimulation of 2×10^6 PBL/ml in bulk cultures of complete medium (RPMI-1640, 2 mM L-glutamine, 100 U/ml penicillin/streptomycin, 5×10^-5 M 2-mercaptoethanol, and 10 mM HEPES supplemented with 5% heat inactivated human AB serum) with 30 μg/ml of purified native Der p I or Der p II for 5-6 days at 37° C. in a humidified 5% CO2 incubator to select for house dust mite protein allergen reactive T cells. This amount of priming antigen was determined to be optimal for the activation of T cells from house dust mite allergic patients. Viable cells were purified by LSM centrifugation and cultured in complete medium supplemented with 5 units recombinant human IL-2/ml and 5 units recombinant human IL-4/ml for up to three weeks until the cells no longer responded to lymphokines and were considered "rested". The ability of the T cells to proliferate to selected peptides, purified Der p I or Der p II, or positive (PHA) controls or negative controls (medium only) was then assessed. For assay, 2×10^4 rested cells were restimulated in the presence of 2×10^4 autologous Epstein-Barr virus (EBV)-transformed B cells (prepared as described below) (gamma-irradiated with 25,000 RADS) or with 5×10^4 autologous PBMs (gamma-irradiated with 3500 RADS), with 2-50 μg/ml of purified native Der p I or Der p II in a volume of 200 μl complete medium in duplicate or triplicate wells in 96-well round bottom plates for 3 days. Each well then received 1 μCi tritiated thymidine for 16-20 hours. The counts incorporated were collected onto glass fiber filter mats and processed for liquid scintillation counting. […] The titrations were used to optimize the dose of peptides in T cell assays.
The maximum response in a titration of each peptide is expressed as the stimulation index (S.I.). The S.I. is the counts per minute (CPM) incorporated by cells in response to peptide, divided by the CPM incorporated by cells in medium only. […] The positive results were used in calculating mean stimulation indices for each peptide for the individual patient tested.
The above procedure was followed with 18 patients in the studies using peptides derived from Der p I and Der f I (FIGS. 31a-b), and 21 patients in the studies with Der p II peptides (FIGS. 32a-b). Individual patient results were used in calculating the mean S.I. for each peptide if the patient responded to the Der p I or Der p II protein at an S.I. of 2.0 or greater and the patient responded to at least one peptide derived from a house dust mite allergen at an S.I. f 2.0 or greater. A summary of positive experiments from the patients tested is shown in FIGS. 32a and 32b and FIGS. 33a and 33b. The bars represent the positivity index. […] In parenthesis above each bar are the mean stimulation indices for each peptide or protein for the group of patients tested.
Autologous EBV-transformed cell lines were γ-irradiated with 25,000 Rad and used as antigen presenting cells in secondary proliferation assays and secondary bulk stimulations. These EBV-transformed cell lines were made by incubating 5×10^6 PBL with 1 ml of B-59/8 Marmoset cell line (ATCC CRL1612, American Type Culture Collection, Rockville, Md.) conditioned medium in the presence of 1 μg/ml phorbol 12-myristate 13-acetate (PMA) at 37° C. for 60 minutes in 12×75 mm polypropylene round-bottom Falcon snap cap tubes (Becton Dickinson Labware, Lincoln Park, N.J.). These cells were then diluted to 1.25×10^6 cells/ml in RPMI-1640 as described above except supplemented with 10% heat-inactivated fetal bovine serum and cultured in 200 μl aliquots in flat bottom culture plates until visible colonies were detected. They were then transferred to larger wells until the cell lines were established.

[3] = system: PBMC from mite-allergic patient; assay: primary T cell (PBMC) proliferation, mite-allergic patient, tritiated thymidine; settings: medium 1071 ± 30
Summary of the method: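 Ficoll-purified PBMC (5×10^4/well, triplicate) from one mite-allergic donor cultured 7 days at 37 °C with graded concentrations of purified Der p I, Der p II or their peptides in RPMI-1640 plus 5% human AB serum. 1 μCi ^3H-thymidine added for 16 h; CPM counted, stimulation index = antigen CPM/medium-only CPM.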

| Substance | stimulation index, rank in group ([1]; 9 patients, FIG. 16a / 16b) | T cell response, Group I peptides ([2]; FIGS. 31a-b) | CPM ± S.D. ([3]; 10 μg/ml) [CPM] | CPM ± S.D. ([3]; 30 μg/ml) [CPM] | CPM ± S.D. ([3]; 100 μg/ml) [CPM] | T cell response to Der p I peptides [1] | positivity index, comparison ([2]; FIGS. 31a-b) | positive T cell responses, modified peptides [2] |
| --- | --- | --- | --- | --- | --- | --- | --- | --- |
| DF I-22.2: VAATESAYLAYRNTSLDLSEQELVD, amino acid residues 40-64 of Der f I | highest stimulation index | positive responses |  |  |  |  |  |  |
| DP I-1: Der p I peptide, amino acid residues 1-20 (TNACSINGNAPAEIDLRQMR) |  | positive response | 1099 ± 48 | 3527 ± 73 | 2746 ± 81 | respond significantly |  |  |
| DP I-3: Der p I peptide (TVTPIRMQGGCGSCWAFSGVAATESAYLA) |  |  | 2608 ± 52 | 1561 ± 13 | 5252 ± 67 | respond significantly |  |  |
| DP I-21.2: Der p I peptide; unique peptide (SINGNAPAEIDLRQMRTVTPIRMQ) |  | positive response |  |  |  |  | higher positivity index then either of the overlapping peptides, DP I-1 and DP I-2 |  |
| DP I-23.31: modified Der p I peptide; unique peptide (DEEGVVQESYYRYVAREQSCRRPNAE) |  | positive T cell studies |  |  |  |  |  | all eighteen T cell lines responded positively |
| DP I-26.6: modified Der p I peptide; unique peptide (DEGIKDLDAFRHYDGRTIIQRDNGYE) |  | positive T cell studies |  |  |  |  |  | all eighteen T cell lines responded positively |
